Reference: patent US5314880A, “Benzimidazole derivatives” (British Bio-technology Limited, priority 1989, dated 1994)

The molecules below were run against T1, PAF receptor (human platelet plasma membrane) (Homo sapiens, UniProt P25105) (assay: Inhibition of ^3 H-PAF receptor binding to human platelet plasma membrane). Details: ^3 H-PAF 0.5 nM, 0° C., 1 hour.
T1 construct: Platelet concentrates were obtained from a hospital blood bank; from tissue; host or cells: human platelets (hospital blood bank concentrates), lysed platelet membranes
Description: Compounds of general formula I inhibit PAF induced functions in both the cellular and tissue levels by changing the PAF binding to its specific receptor site. The ability of compounds of general formula I to inhibit platelet aggregation in human platelet-rich plasma, and to inhibit the binding of PAF to its specific receptor binding site on human platelet plasma membranes was measured in the assay described in the pharmacology example.
The inhibition of ^3 H-PAF binding to human platelet plasma membrane by compounds of general formula I was determined by isotopic labelling and filtration techniques. Platelet concentrates were obtained from a hospital blood bank. These platelet concentrates (500-2500 ml.) were centrifuged at 800 rpm for 10 minutes in a SORVALL RC3B centrifuge to remove the red blood cells present. (The word SORVALL is a trade mark.) The supernatant was subsequently centrifuged at 3,000 rpm in a SORVALL RC3B centrifuge to pellet the platelets present. The platelet rich pellets were resuspended in a minimum volume of buffer (150 Mm NaCl, 10 mM Tris, 2 mM EDTA, pH 7.5) and layered onto Ficoll-Paque gradients, 9 ml platelet concentrate to 2 ml Ficoll, and centrifuged at 1,900 rpm for 15 minutes in a SORVALL RT6000 centrifuge. This step removes the residual red blood cells and other nonspecific material such as lymphocytes from the preparation. The platelets which form a band between the plasma and the Ficoll were removed, resuspended in the above buffer and centrifuged at 3,000 rpm for 10 minutes in a SORVALL RT6000 centrifuge. The pelleted platelets were resuspended in buffer (10 mM Tris, 5 mM MgCl2, 2 mM EDTA, pH 7.0), snap-freezed in liquid N2 and allowed to thaw slowly at room temperature in order to lyse the platelets. The latter step was repeated at least 3 times to ensure proper lysis. The lysed platelets were centrifuged at 3,000 rpm for 10 minutes in a SORVALL RT6000 centrifuge and resuspended in buffer. The latter step was reseated twice in order to remove any cytoplasmic proteins which may hydrolyse the platelet activating factor (PAF) receptor. The prepared platelet membranes may be stored at -70° C. After thawing the prepared membranes were centrifuged in a SORVALL RT6000 at 3,000 rpm for 10 minutes and resuspended in assay buffer.
The assay was conducted by preparing a series of a Tris-buffered solutions of the selected antagonist of predetermined concentrations. Each of these solutions contained ^3 H-PAF (0.5 nM; 1-O-(^3 H]octadecyl-2-acetyl-sn-glycero-3-phosphoryl choline with a specific activity of 132 Ci/mmol), […], a known amount of the test antagonist, and a sufficient amount of Tris-buffer solution (10 mM Tris, 5 mM MgCl2, pH 7.0, 0.25% BSA) to make the final volume 1 ml. Incubation was initiated by the addition of 100 μg of the isolated membrane fraction to each of the above solutions at 0° C. Two control samples, one which ([…]) contained all the ingredients described above except the antagonist and the other (C2) contains C1 plus a 1000-fold excess of unlabelled PAF, were also prepared and incubated simultaneously with the test samples. After 1 hour incubation, each solution was filtered rapidly under vacuo through a WHATMAN GF/C glass fiber falter in order to separate unbound PAF from bound PAF. (The word WHATMAN is a trade mark.) The residue in each case was rapidly washed 4 times with 5 ml cold (4° C.) Tris-buffer solution. Each washed residue was dried under vacuum on a sampling manifold and placed into vials containing 20 ml of OPTIPHASE MP scintillation fluid and the radioactivity counted in a liquid scintillation counter. (The word OPTIPHASE is a trade mark.) Defining the counts for total binding with antagonist from a test sample as "TBA"; the counts for total binding from the control sample C1 as "TB"; and the counts for nonspecific binding from the control sample C2 as "NSB", the percent inhibition of each test antagonist can be determined by the following equation. […]

T1 sequence (P25105 whole entry): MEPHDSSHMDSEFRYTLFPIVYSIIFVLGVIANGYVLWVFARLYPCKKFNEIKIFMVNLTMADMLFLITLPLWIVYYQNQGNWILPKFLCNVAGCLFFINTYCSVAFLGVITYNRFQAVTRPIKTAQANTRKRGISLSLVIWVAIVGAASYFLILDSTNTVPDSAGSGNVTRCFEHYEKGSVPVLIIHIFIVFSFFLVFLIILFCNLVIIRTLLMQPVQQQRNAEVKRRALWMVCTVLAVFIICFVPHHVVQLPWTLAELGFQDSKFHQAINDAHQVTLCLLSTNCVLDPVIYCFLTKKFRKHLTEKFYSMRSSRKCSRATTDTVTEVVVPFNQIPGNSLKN

| Compound | IC50 [nM] |
| --- | --- |
| Cc1nc2ccccc2n1Cc1ccc(S(=O)(=O)N2CCC[C@H]3CCCC[C@@H]32)cc1 (relative stereo) [Example 92, trans-Decahydroquinolinyl 4-(1H-2-methylbenzimidazylmethyl) benzenesulphonamide] | 700 |
| CCN(C(=O)c1ccc(Cn2c(C)nc3ccccc32)cc1)C1CCCCC1 [Example 21, N-Cyclohexyl-N-ethyl 4-(1H-2-methylbenzimidazylmethyl)benzamide] | 500 |
| Cc1nc2ccccc2n1Cc1ccc(C(=O)N(C2CCCCC2)C2CCCCC2)cc1 [Example 22, N,N-Dicyclohexyl 4-(1H-2-methylbenzimidazylmethyl)benzamide] | 650 |
| CSc1nc2ccccc2n1Cc1ccc(C(=O)N(C)C2CCCCC2)cc1 [Example 26, N-Cyclohexyl-N-methyl 4-(1H-2-thiomethylbenzimidazylmethyl) benzamide] | 3000 |
| Cc1nc2ccccc2n1Cc1ccc(S(=O)(=O)N(C)C2CCCCC2)cc1 [Example 41, N-Cyclohexyl-N-methyl 4-(1H-2-methylbenzimidazylmethyl) benzenesulphonamide] | 300 |
| Cc1nc2cc([N+](=O)[O-])ccc2n1Cc1ccc(S(=O)(=O)N(C)C2CCCCC2)cc1 [Example 44, N-Cyclohexyl-N-methyl 4-(1H-2-methyl-5-nitrobenzimidazylmethyl) benzenesulphonamide] | 5000 |
| CCN(C1CCCCC1)S(=O)(=O)c1ccc(Cn2c(C)nc3ccccc32)cc1 [Example 49, N-Cyclohexyl-N-ethyl 4-(1H-2-(2-methyl)benzimidazylmethyl) benzenesulphonamide] | 500 |
| Cc1nc2ccccc2n1Cc1ccc(S(=O)(=O)N2CCCCC2)cc1 [Example 50, Piperidinyl 4-(1H-2-methylbenzimidazylmethyl)benzenesulphonamide] | 2000 |
| Cc1nc2ccccc2n1Cc1ccc(NC(=O)C2CCCCC2)cc1 [Example 58, N-4-(1H-2-Methylbenzimidazylmethyl)benzyl cyclohexylamide] | 2000 |
| Cc1nc2ccccc2n1Cc1ccc(N(C)P(=O)(c2ccccc2)c2ccccc2)cc1 [Example 59] | 500 |
| CSC(c1ccc(C(=O)N(C)C2CCCCC2)cc1)n1cnc2ccccc21 (stereo not drawn) [Example 63, N-Cyclohexyl-N-methyl 4-(1H-benzimidazylthiomethylmethyl) benzamide] | 500 |
| Cc1nc2ccccc2n1Cc1ccc(S(=O)(=O)NCc2ccccc2Cl)cc1 [Example 80, N-2-Chlorobenzyl 4-(1H-2-methylbenzimidazylmethyl) benzenesulphonamide] | 900 |
